Measurements from patent US9371330B2, “Substituted pyrazino[1,2-a]pyrimidines useful as CBP/catenin antagonists for enhancing asymmetric division of somatic stem cells” (University of Southern California, priority 2011, dated 2016).
“Also recorded” adds a separate entry of the source. Like-named read-outs stand apart in the source and are kept apart here.

How the values were obtained:
[1] = target: p300/beta-catenin interaction (Homo sapiens, UniProt Q09472); assay: disruption of p300/beta-catenin interaction; type: binding
Chain of p300/beta-catenin interaction (Q09472 1-111): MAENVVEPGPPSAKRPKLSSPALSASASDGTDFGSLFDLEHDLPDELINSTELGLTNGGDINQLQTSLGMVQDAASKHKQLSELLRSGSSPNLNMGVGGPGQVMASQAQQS
From the text: (§1) Applicant next mapped the binding domains between CBP and beta-catenin, as well as between p300 and beta-catenin. The C-terminal trans-activating region of beta-catenin (647-781) interacted with the same 1-111 amino acids of both CBP and p300 (23). However, only the interaction between CBP and beta-catenin was disrupted by ICG-001, and not the p300/beta-catenin interaction.

[2] = target: CBP/beta-catenin interaction (Homo sapiens, UniProt Q92793); assay: disruption of CBP/beta-catenin interaction; type: binding
Chain of CBP/beta-catenin interaction (Q92793 1-111): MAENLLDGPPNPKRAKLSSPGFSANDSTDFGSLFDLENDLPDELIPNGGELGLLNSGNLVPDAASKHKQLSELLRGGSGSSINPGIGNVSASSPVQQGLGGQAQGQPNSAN
From the text: as §1

[3] = system: Wnt/catenin transcription in SW480 colon carcinoma cells; assay: TOPFLASH TCF/catenin luciferase reporter; type: cell-based; conditions: Homo sapiens
From the text: (§2) ICG-001. Applicant's pharmacologic tools were identified using cell-based forward chemical genomic screens of small molecule secondary structure template chemical libraries (22).

elastin = assay: ex vivo human skin assay, qRT-PCR of elastin; type: cell-based; conditions: 24 hrs; 5 uM ICG-001, 5 uM methylated ICG-001, 1 ug/ml RA
Description: (§3) Methods. Ex Vivo human skin assay culture conditions were based upon a paper by Varani J et al Experimental and Molecular Pathology, 2004.
(§4) Briefly, human skin (surgical waste from plastic surgery procedures) was obtained and the subcutaneous layer of fat was trimmed manually with a scalpel. The skin was then cut into small fragments about 2 mm square and placed in 6 well plates. 1 ml of keratinocyte culture medium (Gibco 10724-011) with 1% P/S (penstrep antibiotic) was added to each well. The epidermis, bathed in media was placed facing up. On the next day (overnight culture in the media above), the skin fragments were transferred to fresh wells that contained either 5 uM ICG-001, 5-uM methylated ICG-001 or 1 ug/ml of retinoic acid (RA). After 24 hrs, skin samples in culture were removed for RNA isolation and qRT-PCR analysis of genes of interest (e.g. elastin (a gene involved in skin appearance and pliability (e.g., wrinkling) and aquaporin 1, which is involved with hydration.

Min mouse = Min mouse polyps; conditions: in vivo
From the text: (§5) Cancer. The importance of Wnt signaling in colorectal cancer is undisputed. Applicant's investigation on the therapeutic utility of ICG-001 therefore quite naturally began with colon cancer.

colorectal cancer cells = assay: colorectal cancer cells: survivin and cytotoxicity; type: cell-based
From the text: as §5

aquaporin 1 = assay: ex vivo human skin assay, qRT-PCR of aquaporin 1; type: cell-based; conditions: 24 hrs; 5 uM ICG-001, 5 uM methylated ICG-001, 1 ug/ml RA
Description: as §3, §4

[4] = system: rat type II lung epithelial cells; assay: TGF-β1-induced EMT genes in rat type II lung epithelial cells; type: cell-based
From the text: Fibrosis. Idiopathic pulmonary fibrosis (IPF)/usual interstitial pneumonia (UIP), the most common of the idiopathic interstitial pneumonias, is a devastating, progressive disorder characterized by excessive fibroblast proliferation and extracellular matrix remodeling leading to lung destruction. There is currently no effective therapy for this uniformly fatal disease. An emerging paradigm proposes a central role for alveolar epithelial cell injury and dysregulated repair in the pathogenesis of IPF. Injury to the epithelium is thought to initiate a cascade of fibroblast activation and matrix deposition, which in predisposed hosts fails to resolve as it would in the course of normal wound repair. Epithelial cells undergo excessive apoptosis, whereas fibroblasts are less amenable to apoptosis and manifest increased survival. The well-characterized model of bleomycin-induced lung injury has been extensively used to investigate potential pathways involved in the pathogenesis of pulmonary fibrosis and to explore therapeutic approaches.

MDA-MB-231 cells = assay: MDA-MB-231 stem/tumor initiating cell markers; type: cell-based
From the text: This phenotype CD44^hi, CD24^lo has been associated with a subpopulation of cells that behave like a breast cancer stem/tumor initiating cell population (51). […] Beyond reduction of survivin message level, there is a gene expression profile consistent with the occurrence of a mesenchymal to epithelial (MET) transition (i.e. decreased expression of twist, vimentin and S100A4 and an increase in E-cadherin expression). Recently, there have been a number of papers, which have correlated epithelial to mesenchymal transition (EMT) with a CSC phenotype (52). EMT is a normal physiologic process that is important in development and in adults, for example in wound healing, but pathophysiologically is associated with tumor metastasis and organ fibrosis (see later discussion on fibrosis). Specific CBP/catenin antagonists can reverse this aberrant EMT in vivo (EMT also plays a critical role in the skin in hair loss etc. J Dermatol Sci. 2011 January; 61(1):7-13. Epub 2010 Dec. 5; epithelial-mesenchymal transition (EMT) plays important roles not only in the morphogenesis but also in wound repair, tissue fibrosis and cancer progression. Recently, regulatory mechanism of this process has been elaborately elucidated. EMT can be a new therapeutic target for treating skin ulcer, fibrosing alopecia, and malignant cutaneous cancers, including squamous cell carcinoma and melanoma).

[5] = system: NOD/SCIDIL2R gamma-/- mice; assay: leukemia mouse model: hair growth and wound healing; type: in vivo; conditions: ICG-001 50 mg/kg/d with VDL vs VDL only, 50 mg/kg/day
Description: NOD/SCIDIL2R gamma−/− mice were shaved and sublethally irradiated prior intravenous injection of 50,000 cells per animal. Leukemic animals were treated with a combination of intraperitoneally administered vincristine/dexamethasone/L-Aspariginase (VDL) and ICG-001 (50 mg/kg/d), which was delivered via subcutaneous osmotic pumps to ensure stable plasma levels, with VDL only as a control for 20 days. The animals were checked periodically for survival, hair growth, and wound healing.

SW620 xenograft = assay: nude mouse SW620 xenograft model of colon cancer; conditions: in vivo
From the text: as §5

CBP = CBP (Homo sapiens, UniProt Q92793); assay: binding to coactivator CBP (affinity chromatography; binding and isothermal calorimetry)
Chain of CBP (Q92793 whole entry): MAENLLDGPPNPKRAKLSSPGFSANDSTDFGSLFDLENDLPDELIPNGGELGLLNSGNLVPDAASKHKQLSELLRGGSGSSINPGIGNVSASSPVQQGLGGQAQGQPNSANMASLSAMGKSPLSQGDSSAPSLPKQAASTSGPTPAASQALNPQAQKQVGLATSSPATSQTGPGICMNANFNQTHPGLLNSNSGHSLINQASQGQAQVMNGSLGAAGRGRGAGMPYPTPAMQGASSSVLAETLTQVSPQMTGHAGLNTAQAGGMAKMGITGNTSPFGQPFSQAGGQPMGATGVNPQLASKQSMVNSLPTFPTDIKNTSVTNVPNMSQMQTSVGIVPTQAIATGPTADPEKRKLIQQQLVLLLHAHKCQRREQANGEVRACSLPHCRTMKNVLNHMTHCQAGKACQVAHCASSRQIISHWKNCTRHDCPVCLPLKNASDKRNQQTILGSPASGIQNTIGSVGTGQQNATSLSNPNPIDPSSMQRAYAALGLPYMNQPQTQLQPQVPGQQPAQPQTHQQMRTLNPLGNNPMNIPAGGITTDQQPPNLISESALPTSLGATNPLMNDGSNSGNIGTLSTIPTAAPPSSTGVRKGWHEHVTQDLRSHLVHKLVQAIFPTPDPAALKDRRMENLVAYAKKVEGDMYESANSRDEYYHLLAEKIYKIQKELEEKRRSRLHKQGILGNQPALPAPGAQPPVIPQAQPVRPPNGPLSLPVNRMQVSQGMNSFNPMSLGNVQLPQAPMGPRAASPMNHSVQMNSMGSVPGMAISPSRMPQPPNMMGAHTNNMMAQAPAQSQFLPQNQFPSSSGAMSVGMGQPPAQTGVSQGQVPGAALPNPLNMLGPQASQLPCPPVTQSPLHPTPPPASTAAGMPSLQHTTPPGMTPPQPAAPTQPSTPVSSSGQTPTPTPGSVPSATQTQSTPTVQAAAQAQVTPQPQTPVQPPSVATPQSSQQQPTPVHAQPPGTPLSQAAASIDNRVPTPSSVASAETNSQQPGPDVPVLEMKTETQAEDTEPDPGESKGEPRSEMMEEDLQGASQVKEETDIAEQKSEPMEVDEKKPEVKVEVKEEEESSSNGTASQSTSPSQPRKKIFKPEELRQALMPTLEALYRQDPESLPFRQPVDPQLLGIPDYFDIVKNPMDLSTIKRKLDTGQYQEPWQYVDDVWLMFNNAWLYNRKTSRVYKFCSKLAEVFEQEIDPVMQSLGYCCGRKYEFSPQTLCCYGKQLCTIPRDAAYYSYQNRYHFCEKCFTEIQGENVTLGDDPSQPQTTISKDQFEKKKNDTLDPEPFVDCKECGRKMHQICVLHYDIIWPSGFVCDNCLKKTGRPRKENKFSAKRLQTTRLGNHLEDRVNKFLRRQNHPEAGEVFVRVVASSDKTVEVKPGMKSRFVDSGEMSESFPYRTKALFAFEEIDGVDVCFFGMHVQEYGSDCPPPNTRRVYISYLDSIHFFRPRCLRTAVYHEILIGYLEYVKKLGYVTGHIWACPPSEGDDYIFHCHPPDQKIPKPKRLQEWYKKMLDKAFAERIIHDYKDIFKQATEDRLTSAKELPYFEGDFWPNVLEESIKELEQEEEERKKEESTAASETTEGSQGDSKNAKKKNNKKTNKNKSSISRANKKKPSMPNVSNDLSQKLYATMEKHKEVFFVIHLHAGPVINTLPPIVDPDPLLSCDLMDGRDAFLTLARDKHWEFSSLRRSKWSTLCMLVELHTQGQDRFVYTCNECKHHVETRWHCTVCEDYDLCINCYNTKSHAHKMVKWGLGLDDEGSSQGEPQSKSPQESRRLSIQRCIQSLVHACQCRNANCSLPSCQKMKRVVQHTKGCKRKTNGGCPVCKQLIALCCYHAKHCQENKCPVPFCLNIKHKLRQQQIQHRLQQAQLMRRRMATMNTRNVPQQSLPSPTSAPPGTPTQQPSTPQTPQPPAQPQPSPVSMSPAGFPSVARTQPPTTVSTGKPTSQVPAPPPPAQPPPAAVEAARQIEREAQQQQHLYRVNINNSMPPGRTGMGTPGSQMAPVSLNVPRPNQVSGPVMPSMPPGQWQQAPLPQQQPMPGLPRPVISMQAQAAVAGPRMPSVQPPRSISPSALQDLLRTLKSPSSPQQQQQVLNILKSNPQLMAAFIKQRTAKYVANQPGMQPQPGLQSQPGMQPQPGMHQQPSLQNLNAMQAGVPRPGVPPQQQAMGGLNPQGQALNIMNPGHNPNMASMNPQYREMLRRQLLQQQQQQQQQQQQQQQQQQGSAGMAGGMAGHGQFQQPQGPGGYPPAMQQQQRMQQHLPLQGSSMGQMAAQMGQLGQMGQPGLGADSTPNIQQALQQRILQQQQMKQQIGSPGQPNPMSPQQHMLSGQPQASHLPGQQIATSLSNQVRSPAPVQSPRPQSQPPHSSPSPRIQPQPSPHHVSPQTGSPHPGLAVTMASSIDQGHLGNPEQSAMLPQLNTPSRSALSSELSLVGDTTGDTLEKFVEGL
From the text: as §2, §1

disruption of the CBP/beta-catenin interaction [2]: disrupted | IC50 [3]: 3000 nM | Kd (CBP; affinity chromatography approach, read-out: binding affinity to the coactivator CBP): ~1 nM | Kd (CBP; binding and isothermal calorimetry studies, read-out: binding affinity to the N-terminus of CBP): ~1 nM
SMILES: O=C1[C@H](Cc2ccc(O)cc2)N2C(=O)CCN(C(=O)NCc3ccccc3)[C@H]2CN1Cc1cccc2ccccc12 [ICG-001]
effect on the p300/beta-catenin interaction [1]: without affecting the p300/beta-catenin interaction | expression of elastin (elastin): increase | polyps (Min mouse): reducing polyps | survivin expression (colorectal cancer cells): down-regulated survivin | cytotoxicity (colorectal cancer cells; colorectal cancer cells vs normal colonic epithelial cells): selective cytotoxicity in colorectal cancer cells, but not in normal colonic epithelial cells | expression of aquaporin 1 (aquaporin 1): increase | TGF-β1-induced up-regulation of α-SMA and type I collagen [4]: prevents the TGF-β1-induced up-regulation of α-SMA and type I collagen | CD44 expression (MDA-MB-231 cells): decreasing CD44 expression | side population (SP) and ALDH activity (MDA-MB-231 cells): dramatically decreases the side population (SP) and ALDH activity | cell surface CD24 expression (MDA-MB-231 cells; 24 h): significantly increased the expression of cell surface CD24 | hair growth on shaved area ([5]; within two weeks): had regrown their hair; also recorded: substantial hair growth covering the entire previously shaved area | healing of pump insertion wounds [5]: had substantial improved; also recorded: heal quicker | tumor growth (SW620 xenograft): reducing tumor growth
